# Experiments:
# [1] = organism: Rattus norvegicus; assay type: toxicity, organism-based, Sprague-Dawley; details: in vivo, po, 75 mg/kg, 24 h, route oral GAVAGE, dose level High, time 1 day, vehicle .5 % CMC
# Description: DrugMatrix - Regimen: Single
# [2] = organism: Rattus norvegicus; experiment: DrugMatrix - Regimen: Daily Repeat; assay type: toxicity, organism-based, Sprague-Dawley; parameters: regimen Daily Repeat, gender Male, age 6-8 weeks; details: in vivo, po, 75 mg/kg, 72 h, route oral GAVAGE, dose level High, time 3 day, vehicle .5 % CMC
smiles,measurement,setting,value
Nc1ccc(Cl)cc1 [4-CHLOROANILINE],ABSOLUTE EOSINOPHIL,[1]; tissue Blood,269 CELLS/uL
same,ABSOLUTE LYMPHOCYTE,[1]; tissue Blood,17566.67 CELLS/uL
same,ABSOLUTE MONOCYTE,[1]; tissue Blood,600.33 CELLS/uL
same,ABSOLUTE SEGMENTED NEUTROPHIL,[1]; tissue Blood,3397.33 CELLS/uL
same,BASOPHIL,[1]; tissue Blood,0%
same,EOSINOPHIL,[1]; tissue Blood,1.33%
same,ERYTHROCYTE COUNT,[1]; tissue Blood,5.88 x10E6/uL
same,HEMATOCRIT,[1]; tissue Blood,36.53%
same,HEMOGLOBIN,[1]; tissue Blood,13.03 G/DL
same,LEUKOCYTE COUNT,[1]; tissue Blood,21.83 x10E3/uL
same,LYMPHOCYTE,[1]; tissue Blood,81.67%
same,MEAN CORPUSCULAR HEMOGLOBIN,[1]; tissue Blood,22.17 pg
same,MEAN CORPUSCULAR HEMOGLOBIN CONCENTRATION,[1]; tissue Blood,35.7 G/DL
same,MEAN CORPUSCULAR VOLUME,[1]; tissue Blood,62.13 fL
same,MONOCYTE,[1]; tissue Blood,2.67%
same,NEUTROPHIL,[1]; tissue Blood,14.33%
same,NUCLEATED RED BLOOD CELLS,[1]; tissue Blood,0 /100WBC
same,PLATELET COUNT,[1]; tissue Blood,950.67 x10E3/uL
same,ALANINE AMINOTRANSFERASE,[1]; tissue Plasma,53 u/L
same,ALBUMIN,[1]; tissue Plasma,4.37 G/DL
same,ALKALINE PHOSPHATASE,[1]; tissue Plasma,533.33 u/L
same,ASPARTATE AMINOTRANSFERASE,[1]; tissue Plasma,101 u/L
same,BLOOD UREA NITROGEN,[1]; tissue Plasma,13.67 mg/dL
same,CARBON DIOXIDE,[1]; tissue Plasma,25.67 mmol/L
same,CHLORIDE,[1]; tissue Plasma,102.33 MEQ/L
same,CHOLESTEROL,[1]; tissue Plasma,75.33 mg/dL
same,CREATININE,[1]; tissue Plasma,0.19 mg/dL
same,GLUCOSE,[1]; tissue Plasma,168 mg/dL
same,LACTATE DEHYDROGENASE,[1]; tissue Plasma,480 u/L
same,LIPASE,[1]; tissue Plasma,9.67 u/L
same,PHOSPHORUS,[1]; tissue Plasma,13.93 mg/dL
same,POTASSIUM,[1]; tissue Plasma,6.69 MEQ/L
same,SODIUM,[1]; tissue Plasma,146.3 MEQ/L
same,TOTAL BILIRUBIN,[1]; tissue Plasma,0.23 mg/dL
same,TOTAL PROTEIN,[1]; tissue Plasma,6.3 G/DL
same,URIC ACID,[1]; tissue Plasma,2.2 mg/dL
same,ABSOLUTE BASOPHIL,[2]; tissue Blood,0 CELLS/uL
same,ABSOLUTE EOSINOPHIL,[2]; tissue Blood,340 CELLS/uL
same,ABSOLUTE LYMPHOCYTE,[2]; tissue Blood,18564 CELLS/uL
same,ABSOLUTE MONOCYTE,[2]; tissue Blood,396 CELLS/uL
same,ABSOLUTE SEGMENTED NEUTROPHIL,[2]; tissue Blood,3900 CELLS/uL
same,BASOPHIL,[2]; tissue Blood,0%
same,EOSINOPHIL,[2]; tissue Blood,1.67%
same,ERYTHROCYTE COUNT,[2]; tissue Blood,5.42 x10E6/uL
same,HEMATOCRIT,[2]; tissue Blood,35.1%
same,HEMOGLOBIN,[2]; tissue Blood,13.57 G/DL
same,LEUKOCYTE COUNT,[2]; tissue Blood,27.87 x10E3/uL
same,LYMPHOCYTE,[2]; tissue Blood,79.33%
same,MEAN CORPUSCULAR HEMOGLOBIN,[2]; tissue Blood,25.13 pg
same,MEAN CORPUSCULAR HEMOGLOBIN CONCENTRATION,[2]; tissue Blood,38.77 G/DL
same,MEAN CORPUSCULAR VOLUME,[2]; tissue Blood,64.77 fL
same,MONOCYTE,[2]; tissue Blood,1.67%
same,NEUTROPHIL,[2]; tissue Blood,17.33%
same,NUCLEATED RED BLOOD CELLS,[2]; tissue Blood,1 /100WBC
same,PLATELET COUNT,[2]; tissue Blood,1129 x10E3/uL
same,ALANINE AMINOTRANSFERASE,[2]; tissue Plasma,48.33 u/L
same,ALBUMIN,[2]; tissue Plasma,4.23 G/DL
same,ALKALINE PHOSPHATASE,[2]; tissue Plasma,297 u/L
same,ASPARTATE AMINOTRANSFERASE,[2]; tissue Plasma,88.67 u/L
same,BLOOD UREA NITROGEN,[2]; tissue Plasma,14.67 mg/dL
same,CARBON DIOXIDE,[2]; tissue Plasma,26.67 mmol/L
same,CHLORIDE,[2]; tissue Plasma,104 MEQ/L
same,CHOLESTEROL,[2]; tissue Plasma,52.67 mg/dL
same,CREATININE,[2]; tissue Plasma,0.27 mg/dL
same,GLUCOSE,[2]; tissue Plasma,226.33 mg/dL
same,LACTATE DEHYDROGENASE,[2]; tissue Plasma,200 u/L
same,LIPASE,[2]; tissue Plasma,9.67 u/L
same,PHOSPHORUS,[2]; tissue Plasma,13.43 mg/dL
same,POTASSIUM,[2]; tissue Plasma,6.55 MEQ/L
same,SODIUM,[2]; tissue Plasma,147 MEQ/L
same,TOTAL BILIRUBIN,[2]; tissue Plasma,0.23 mg/dL
same,TOTAL PROTEIN,[2]; tissue Plasma,6.3 G/DL
same,URIC ACID,[2]; tissue Plasma,2.03 mg/dL
